Laboratory results taken from US9096601B2 (CSPC Zhongqi Pharmaceutical Technology (Shijiazhuang) Co., …, priority 2010, dated 2015).
Where two headings read alike, the source gives them in different places.

How the values were obtained:
ALK = ALK (Homo sapiens (Human), UniProt Q9UM73); assay: Kinase inhibitory activity, isotopic labeling (γ-33P-ATP); assay type: biochemical; details: compound at 10 μM
Experimental: (§1) The object of this assay was to test the inventive compounds for the kinase inhibitory activity in vitro. In this assay, an isotopic labeling method was used to label the γ phosphate group on ATP. EGFR (including wild type, L858R mutant type and L858R/T790M double mutant type), VEGFR2, ALK, BTK, c-KIT, c-SRC, MET, PDGFRα and FLT3 kinases were tested in vitro for the activity inhibition. Staurosporine was used as a reference molecule (or referred to as a positive control). […] The IC50 value can be obtained by the calculation of the inhibitory rates at a series of different concentrations of the tested compounds.
(§2) To a reaction tube were successively added the buffer solution (8 mM MOPS, pH 7.0, 0.2 mM EDTA, 10 mM MnCl2), the kinase to be tested (5-10 mU) (EGFR/ALK/BTK/c-KIT/c-SRC/MET/PDGFRα/VEGFR2), the substrate for the kinase to be tested (a reference material), 10 mM of the solution of magnesium acetate and γ-^33 P-ATP, and different concentrations of the tested compounds. […] The reaction was terminated with […] of the 3% phosphate buffer solution. 10 μL of the reaction liquid was titrated on the Filtermat A membrane. The membrane was washed with 75 mM of the phosphate solution thrice (5 minutes each time), and then with methanol once, and finally dried. The membrane was subjected to a scintillation counting. The value of the scintillation counting reflected the phosphorylation level of the substrate and therefore could characterize the inhibition of the kinase activity.

BTK = BTK (Homo sapiens (Human), UniProt Q06187); assay: as above; assay type: biochemical; details: compound at 10 μM
Experimental: as §1, §2

FLT3 = FLT3 (Homo sapiens (Human), UniProt P36888); assay: as above; assay type: biochemical; details: compound at 10 μM
Experimental: as §1, §2

MET = MET (Homo sapiens (Human), UniProt P08581); assay: as above; assay type: biochemical; details: compound at 10 μM
Experimental: as §1, §2

PDGFRα = PDGFRα (Homo sapiens (Human), UniProt P16234); assay: as above; assay type: biochemical; details: compound at 10 μM
Experimental: as §1, §2

VEGFR2 = VEGFR2 (Homo sapiens (Human), UniProt P35968); assay: as above; assay type: biochemical
Experimental: as §1, §2

c-KIT = c-KIT (Homo sapiens (Human), UniProt P10721); assay: as above; assay type: biochemical; details: compound at 10 μM
Experimental: as §1, §2

c-SRC = c-SRC (Homo sapiens (Human), UniProt P12931); assay: as above; assay type: biochemical; details: compound at 10 μM
Experimental: as §1, §2

[1] = system: acute myelogenous leukemia cell strain MV4-11; assay: In-vitro tumor cell proliferation inhibition, MTT; assay type: cell-based, human
[2] = system: breast carcinoma cell strain BT474; assay: In-vitro tumor cell proliferation inhibition, MTT; assay type: cell-based, human
Method in brief: (§3)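 A431, HCC827, SW620 and BT474 cells (HCC827 seeded at 6×10^4 cells/ml) treated overnight-after-plating with graded compound concentrations for 72 h at 37° C; MTT read at 570 nm. Inhibition calculated versus untreated control, triplicate wells, ≥3 repeats; reported as IC50 or inhibitory rate.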

[3] = system: breast carcinoma cell strain MDA-MB-468; assay: In-vitro tumor cell proliferation inhibition, MTT; assay type: cell-based, human
[4] = system: chronic granulocytic leukemia cell strain K562; assay: In-vitro tumor cell proliferation inhibition, MTT; assay type: cell-based, human
[5] = system: colon cancer cell strain HCT116; assay: In-vitro tumor cell proliferation inhibition, MTT; assay type: cell-based, human
[6] = system: colon cancer cell strain SW480; assay: In-vitro tumor cell proliferation inhibition, MTT; assay type: cell-based, human
[7] = system: colon cancer cell strain SW620; assay: In-vitro tumor cell proliferation inhibition, MTT; assay type: cell-based, human
Method in brief: as §3

[8] = system: gastric cancer cell strain MK-45; assay: In-vitro tumor cell proliferation inhibition, MTT; assay type: cell-based, human; details: 72 hours, read-out: MK45 (IC50)
[9] = system: liver cancer cell strain Hep G2; assay: In-vitro tumor cell proliferation inhibition, MTT; assay type: cell-based, human
[10] = system: malignant melanoma cell strain A375; assay: In-vitro tumor cell proliferation inhibition, MTT; assay type: cell-based, human
[11] = system: squamous cell carcinoma cell strain A431; assay: In-vitro tumor cell proliferation inhibition, MTT; assay type: cell-based, human
Method in brief: as §3

[12] = 72 hours, read-out: HEPG2 (IC50)

Chain of c-SRC (P12931 whole entry, looked up): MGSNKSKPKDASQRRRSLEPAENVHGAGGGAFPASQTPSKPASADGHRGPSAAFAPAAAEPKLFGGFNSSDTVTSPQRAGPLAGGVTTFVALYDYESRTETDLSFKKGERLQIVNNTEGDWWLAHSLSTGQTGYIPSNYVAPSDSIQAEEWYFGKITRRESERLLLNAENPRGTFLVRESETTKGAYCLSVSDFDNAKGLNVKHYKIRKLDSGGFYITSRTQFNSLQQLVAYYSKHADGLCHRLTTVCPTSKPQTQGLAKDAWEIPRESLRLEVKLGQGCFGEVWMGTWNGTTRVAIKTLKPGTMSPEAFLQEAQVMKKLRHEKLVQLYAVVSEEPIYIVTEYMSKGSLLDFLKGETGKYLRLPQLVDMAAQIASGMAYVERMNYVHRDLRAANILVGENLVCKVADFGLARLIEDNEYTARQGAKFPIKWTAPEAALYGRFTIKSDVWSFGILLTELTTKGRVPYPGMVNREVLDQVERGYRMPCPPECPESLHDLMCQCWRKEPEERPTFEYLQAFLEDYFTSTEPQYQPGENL
Chain of ALK (Q9UM73 19-1620): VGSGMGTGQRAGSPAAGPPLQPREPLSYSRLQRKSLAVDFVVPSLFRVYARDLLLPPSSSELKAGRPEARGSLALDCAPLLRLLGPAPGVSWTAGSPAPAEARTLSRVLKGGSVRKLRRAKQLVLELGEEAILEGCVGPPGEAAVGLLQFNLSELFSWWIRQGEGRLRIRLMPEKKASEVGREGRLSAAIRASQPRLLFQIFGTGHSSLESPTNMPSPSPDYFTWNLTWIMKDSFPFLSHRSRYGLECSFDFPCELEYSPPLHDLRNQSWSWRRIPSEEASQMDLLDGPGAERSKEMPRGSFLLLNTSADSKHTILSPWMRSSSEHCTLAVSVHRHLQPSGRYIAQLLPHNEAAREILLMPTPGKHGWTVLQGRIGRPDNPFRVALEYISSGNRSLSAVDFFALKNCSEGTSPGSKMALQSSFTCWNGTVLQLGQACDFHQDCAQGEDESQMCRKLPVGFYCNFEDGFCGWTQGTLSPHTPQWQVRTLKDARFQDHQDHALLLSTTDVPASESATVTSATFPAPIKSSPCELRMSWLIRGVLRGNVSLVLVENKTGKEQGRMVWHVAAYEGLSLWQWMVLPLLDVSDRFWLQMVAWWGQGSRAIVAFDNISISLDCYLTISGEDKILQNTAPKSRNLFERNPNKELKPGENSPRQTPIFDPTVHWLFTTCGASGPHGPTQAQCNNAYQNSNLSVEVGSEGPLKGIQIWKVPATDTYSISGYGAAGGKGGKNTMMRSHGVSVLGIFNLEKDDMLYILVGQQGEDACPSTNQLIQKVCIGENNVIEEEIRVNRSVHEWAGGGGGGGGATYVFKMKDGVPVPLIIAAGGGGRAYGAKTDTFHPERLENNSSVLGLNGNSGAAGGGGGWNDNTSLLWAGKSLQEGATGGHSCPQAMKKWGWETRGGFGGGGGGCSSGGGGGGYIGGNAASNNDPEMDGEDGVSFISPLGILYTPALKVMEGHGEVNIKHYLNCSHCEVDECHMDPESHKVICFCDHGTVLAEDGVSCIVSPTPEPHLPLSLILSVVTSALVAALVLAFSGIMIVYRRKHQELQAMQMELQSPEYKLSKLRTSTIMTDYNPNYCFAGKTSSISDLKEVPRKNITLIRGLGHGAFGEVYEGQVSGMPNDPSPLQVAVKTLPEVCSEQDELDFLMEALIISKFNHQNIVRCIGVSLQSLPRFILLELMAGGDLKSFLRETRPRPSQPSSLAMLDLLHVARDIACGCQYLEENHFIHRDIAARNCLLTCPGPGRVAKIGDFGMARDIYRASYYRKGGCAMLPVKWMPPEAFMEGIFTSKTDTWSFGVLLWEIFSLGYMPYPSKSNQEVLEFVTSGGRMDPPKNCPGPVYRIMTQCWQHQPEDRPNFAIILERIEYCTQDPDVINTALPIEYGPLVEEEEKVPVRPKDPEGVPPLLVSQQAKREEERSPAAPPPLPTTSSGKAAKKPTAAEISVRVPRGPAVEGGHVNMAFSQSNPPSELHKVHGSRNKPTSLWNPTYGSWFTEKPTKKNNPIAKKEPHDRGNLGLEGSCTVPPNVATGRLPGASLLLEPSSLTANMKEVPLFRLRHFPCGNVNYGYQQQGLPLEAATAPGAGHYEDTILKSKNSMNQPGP
Chain of BTK (Q06187 whole entry): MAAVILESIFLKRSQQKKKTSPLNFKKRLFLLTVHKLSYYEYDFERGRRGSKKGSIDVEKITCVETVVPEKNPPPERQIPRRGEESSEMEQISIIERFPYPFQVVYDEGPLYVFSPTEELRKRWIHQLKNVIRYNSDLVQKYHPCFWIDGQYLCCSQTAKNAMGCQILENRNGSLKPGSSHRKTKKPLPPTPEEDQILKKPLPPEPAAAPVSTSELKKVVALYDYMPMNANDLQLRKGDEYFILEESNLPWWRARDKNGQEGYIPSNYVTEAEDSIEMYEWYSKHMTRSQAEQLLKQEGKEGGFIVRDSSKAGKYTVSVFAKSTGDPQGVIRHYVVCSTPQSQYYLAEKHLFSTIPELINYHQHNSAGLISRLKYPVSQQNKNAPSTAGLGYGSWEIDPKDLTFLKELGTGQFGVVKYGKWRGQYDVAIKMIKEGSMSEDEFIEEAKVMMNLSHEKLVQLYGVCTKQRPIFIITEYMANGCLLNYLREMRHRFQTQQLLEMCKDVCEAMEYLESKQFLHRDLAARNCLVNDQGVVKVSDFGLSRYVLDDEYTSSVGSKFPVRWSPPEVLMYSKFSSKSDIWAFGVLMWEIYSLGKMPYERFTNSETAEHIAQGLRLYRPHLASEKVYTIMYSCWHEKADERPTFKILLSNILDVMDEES
Chain of VEGFR2 (P35968 20-1356): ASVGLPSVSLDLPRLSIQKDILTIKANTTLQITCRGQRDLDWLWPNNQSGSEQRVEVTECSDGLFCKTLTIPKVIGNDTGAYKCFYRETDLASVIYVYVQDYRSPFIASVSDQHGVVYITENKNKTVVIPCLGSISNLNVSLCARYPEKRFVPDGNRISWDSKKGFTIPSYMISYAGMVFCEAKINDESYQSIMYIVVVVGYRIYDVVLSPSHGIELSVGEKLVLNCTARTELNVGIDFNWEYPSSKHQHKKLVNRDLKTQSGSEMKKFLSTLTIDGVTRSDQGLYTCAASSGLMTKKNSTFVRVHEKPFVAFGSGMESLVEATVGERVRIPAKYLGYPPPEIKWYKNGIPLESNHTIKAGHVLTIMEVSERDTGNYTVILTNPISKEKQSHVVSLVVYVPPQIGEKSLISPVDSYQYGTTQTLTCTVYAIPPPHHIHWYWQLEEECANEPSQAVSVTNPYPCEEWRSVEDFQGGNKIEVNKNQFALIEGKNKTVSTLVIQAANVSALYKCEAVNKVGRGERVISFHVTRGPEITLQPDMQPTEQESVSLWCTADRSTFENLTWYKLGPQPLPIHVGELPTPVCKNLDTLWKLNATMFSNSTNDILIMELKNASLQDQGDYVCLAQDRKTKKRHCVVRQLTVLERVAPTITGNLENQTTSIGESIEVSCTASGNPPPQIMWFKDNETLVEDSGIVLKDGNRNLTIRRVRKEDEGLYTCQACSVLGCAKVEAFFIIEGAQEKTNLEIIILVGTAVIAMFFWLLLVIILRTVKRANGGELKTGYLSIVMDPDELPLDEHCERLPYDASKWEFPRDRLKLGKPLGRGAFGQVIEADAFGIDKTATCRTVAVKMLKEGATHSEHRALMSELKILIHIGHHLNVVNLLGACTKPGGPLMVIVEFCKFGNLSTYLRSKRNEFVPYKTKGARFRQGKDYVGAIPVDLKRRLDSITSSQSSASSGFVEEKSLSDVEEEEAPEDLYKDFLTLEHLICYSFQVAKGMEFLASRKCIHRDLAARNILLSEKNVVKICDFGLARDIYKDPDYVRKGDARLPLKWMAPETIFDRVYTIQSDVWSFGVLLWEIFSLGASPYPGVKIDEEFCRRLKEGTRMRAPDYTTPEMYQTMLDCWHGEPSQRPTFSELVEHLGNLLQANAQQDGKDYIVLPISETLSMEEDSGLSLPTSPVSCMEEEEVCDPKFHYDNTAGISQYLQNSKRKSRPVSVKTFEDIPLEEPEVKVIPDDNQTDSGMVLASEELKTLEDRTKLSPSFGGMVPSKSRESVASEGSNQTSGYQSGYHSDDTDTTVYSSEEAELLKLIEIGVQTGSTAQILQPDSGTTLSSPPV
Chain of c-KIT (P10721 26-976): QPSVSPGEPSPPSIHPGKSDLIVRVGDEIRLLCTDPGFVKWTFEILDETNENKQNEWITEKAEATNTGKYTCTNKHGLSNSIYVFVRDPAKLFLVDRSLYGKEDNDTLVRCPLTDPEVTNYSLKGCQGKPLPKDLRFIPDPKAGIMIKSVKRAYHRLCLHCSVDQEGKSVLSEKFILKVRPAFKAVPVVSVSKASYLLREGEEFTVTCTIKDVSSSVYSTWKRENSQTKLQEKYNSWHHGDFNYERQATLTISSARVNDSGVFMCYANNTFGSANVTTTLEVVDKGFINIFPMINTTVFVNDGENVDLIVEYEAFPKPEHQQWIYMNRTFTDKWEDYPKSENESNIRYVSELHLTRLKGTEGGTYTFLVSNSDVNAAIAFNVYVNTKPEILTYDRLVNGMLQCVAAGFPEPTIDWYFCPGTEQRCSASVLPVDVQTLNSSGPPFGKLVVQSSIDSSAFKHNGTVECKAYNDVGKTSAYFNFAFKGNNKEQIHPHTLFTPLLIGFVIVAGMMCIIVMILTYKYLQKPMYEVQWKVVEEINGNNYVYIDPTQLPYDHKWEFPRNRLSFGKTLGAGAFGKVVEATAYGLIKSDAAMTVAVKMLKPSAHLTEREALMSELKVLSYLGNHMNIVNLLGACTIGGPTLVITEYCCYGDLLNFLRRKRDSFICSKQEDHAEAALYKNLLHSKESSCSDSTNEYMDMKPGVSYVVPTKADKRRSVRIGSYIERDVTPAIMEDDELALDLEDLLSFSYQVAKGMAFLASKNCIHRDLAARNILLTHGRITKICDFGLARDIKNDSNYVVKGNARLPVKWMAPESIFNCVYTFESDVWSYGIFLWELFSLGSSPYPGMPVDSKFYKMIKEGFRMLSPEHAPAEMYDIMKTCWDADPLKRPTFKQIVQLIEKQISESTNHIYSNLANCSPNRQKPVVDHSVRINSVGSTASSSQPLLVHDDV

| Structure (SMILES) | The kinase activity inhibitory rate (%) by the tested compounds at 10 μM ALK (ALK) [%] | The kinase activity inhibitory rate (%) by the tested compounds at 10 μM BTK (BTK) [%] | The kinase activity inhibitory rate (%) by the tested compounds at 10 μM FLT3 (FLT3) [%] | The kinase activity inhibitory rate (%) by the tested compounds at 10 μM MET (MET) [%] | The kinase activity inhibitory rate (%) by the tested compounds at 10 μM PDGFRα (PDGFRα) [%] | IC50 (VEGFR2; ATP 90 μM (Km)) [nM] | The kinase activity inhibitory rate (%) by the tested compounds at 10 μM c-KIT (c-KIT) [%] | The kinase activity inhibitory rate (%) by the tested compounds at 10 μM c-SRC (c-SRC) [%] | IC50 ([1]; 72 hours) [nM] | IC50 ([2]; 72 hours) [nM] | IC50 ([3]; 72 hours) [nM] | IC50 ([4]; 72 hours) [nM] | IC50 ([5]; 72 hours) [nM] | IC50 ([6]; 72 hours) [nM] | IC50 ([7]; 72 hours) [nM] | IC50 [8] [nM] | IC50 [9, 12] [nM] | IC50 ([10]; 72 hours) [nM] | IC50 ([11]; 72 hours) [nM] | also measured |
| --- | --- | --- | --- | --- | --- | --- | --- | --- | --- | --- | --- | --- | --- | --- | --- | --- | --- | --- | --- | --- |
| CC(C)n1c(Nc2ccccc2)nc2cnc(Nc3ccc(C(=O)NN4CCN(C)CC4)cc3)nc21 [Compound 8-1] | 23 | 46 | 85 | 83 | 43 | > 1000 | 26 | 11 | 89 | 2130 | 2060 | 1080 | > 10000 | 5720 | > 10000 | 6800 | > 10000 | 3020 | 2060 |  |
| CC(C)n1c(Nc2ccc(F)c(Cl)c2)nc2cnc(Nc3ccc(C(=O)NN4CCN(C)CC4)cc3)nc21 [Compound 8-2] | 63 | 98 | 78 | 100 | 84 | > 1000 | 90 | 99 | 1770 | 1860 | 6130 | 3730 | 7810 | > 10000 | 5570 | > 1000 | > 10000 | 1590 | 9290 |  |
| COc1cc(C(=O)NN2CCN(C)CC2)ccc1Nc1ncc2nc(Nc3ccccc3)n(C(C)C)c2n1 [Compound 8-7, 3-methoxy-4-(9-isopropyl-8-phenylamino-9H-purin-2-ylamino)-N-(4-methylpiperazin-1-yl)benzamide] |  |  |  |  |  |  |  |  |  |  |  |  |  |  |  |  |  |  |  | inhibition at 10 µM (ALK; read-out: The kinase activity inhibitory rate (%) by the tested compounds at 10 μM ALK): 61%; inhibition at 10 µM (BTK; read-out: The kinase activity inhibitory rate (%) by the tested compounds at 10 μM BTK): 12%; inhibition at 10 µM (FLT3; read-out: The kinase activity inhibitory rate (%) by the tested compounds at 10 μM FLT3): 0%; inhibition at 10 µM (MET; read-out: The kinase activity inhibitory rate (%) by the tested compounds at 10 μM MET): 0%; inhibition at 10 µM (PDGFRα; read-out: The kinase activity inhibitory rate (%) by the tested compounds at 10 μM PDGFRα): 9%; IC50 (VEGFR2): > 1000 nM; inhibition at 10 µM (c-KIT; read-out: The kinase activity inhibitory rate (%) by the tested compounds at 10 μM c-KIT): 8%; inhibition at 10 µM (c-SRC; read-out: The kinase activity inhibitory rate (%) by the tested compounds at 10 μM c-SRC): 28%; IC50 ([1]; Homo sapiens, MV4-11, 72 hours): > 10000 nM; IC50 ([2]; Homo sapiens, BT-474, 72 hours): 5820 nM; IC50 ([3]; Homo sapiens, MDA-MB-468, 72 hours): > 10000 nM; IC50 ([4]; Homo sapiens, K562, 72 hours): > 10000 nM; IC50 ([5]; Homo sapiens, HCT-116, 72 hours): > 10000 nM; IC50 ([6]; Homo sapiens, SW480, 72 hours): > 10000 nM; IC50 ([7]; Homo sapiens, SW-620, 72 hours): > 10000 nM; IC50 ([8]; Homo sapiens): 3760 nM; IC50 ([9]; Homo sapiens, HepG2, 72 hours): > 10000 nM; IC50 ([10]; Homo sapiens, A-375, 72 hours): 1310 nM; IC50 ([11]; Homo sapiens, A-431, 72 hours): > 10000 nM |
| CC(C)n1c(Nc2ccccc2)nc2cnc(Nc3ccc(C(=O)NC4CCN(C)CC4)cc3)nc21 [Compounds 8-9] | 36 | 88 | 76 | 67 | 88 | > 1000 | 96 | 98 | 235 | 1030 | 1320 | 143 | 518 | > 10000 | 524 | 764 | > 10000 | 586 | 1530 |  |
| CC(C)n1c(Nc2ccccc2)nc2cnc(Nc3ccc(N4CCN(C)CC4)cc3)nc21 [Compounds 8-10] | 45 | 32 | 87 | 64 | 87 | > 1000 | 3 | 23 | 102 | 226 | 700 | 106 | 1090 | > 10000 | 6060 | > 1000 | 4800 | 1490 | 1580 |  |
| CC(C)n1c(Nc2cccc(Br)c2)nc2cnc(Nc3ccc(N4CCN(C)CC4)cc3)nc21 [Compounds 8-11] | 33 | 77 | 67 | 93 | 58 | 140 | 67 | 98 | 3760 | 575 | 1190 | 366 | 1680 | > 10000 | 1960 | > 1000 | 11200 | 1390 | 7670 |  |
| C#Cc1cccc(Nc2nc3cnc(Nc4ccc(N5CCN(C)CC5)cc4)nc3n2C(C)C)c1 [Compounds 8-12] | 80 | 78 | 56 | 93 | 55 | 50 | 82 | 98 | 1710 | 2140 | 3220 | 221 | 4010 | > 10000 | 1290 | > 1000 | 6610 | 3090 | 2570 |  |
| CC(C)n1c(Nc2ccc(F)c(Cl)c2)nc2cnc(Nc3ccc(N4CCN(C)CC4)cc3)nc21 [Compounds 8-13] | 78 | 45 | 89 | 100 | 90 | > 1000 | 87 | 31 | 512 | 202 | 2100 | 86 | 2540 | > 10000 | 3680 | > 1000 | 5960 | 838 | 1290 |  |
